Reference: US20200361871A1 (Enterprise Therapeutics Ltd., priority 2018, published 2020)

Target: human TMEM16A (TMEM16Aabc variant) (Homo sapiens, UniProt Q5XXA6, DEL476-501, form not given)
Assay: Automated whole-cell patch clamp (Qpatch) TMEM16A potentiator assay in FRT cells stably expressing human TMEM16A
Type: cell-based
Conditions: for % Potentiation @ 3.33 μM Avg: 3.33 μM solution of test compound, percentage increase of baseline TMEM16A current; for EC50: calculated EC50, Qpatch TMEM16A current at +70 mV
From the text: FIG. 1 is an example trace from a whole-cell patch clamp (Qpatch) TMEM16A potentiator assay as used in Biological Example 95 and illustrates the methodology used in the assay. In FIG. 1: S is Saline; V is Vehicle; #1 is Test Compound concentration #1; #2 is Test Compound concentration 2; #3 is Test Compound concentration 3; #4 is Test Compound concentration 4; #5 is Test Compound concentration #5; and R is Reference. The arrow in column V represents the baseline current, IBL. The arrows in each of the columns #1, #2, #3, #4, #5 and R represent I#[1], I#[2], I#[3], I#[4], I#[5] and I[Ref], which are the peak currents during the incubation periods for test compounds concentrations #1 to #5 and the Reference.
Fisher rat thyroid (FRT) cells stably expressing human TMEM16A (TMEM16Aabc variant; Dr Luis Galietta, Insituto Giannina, Italy) were cultured in T-75 flasks in Hams F-12 media with Coon's modification (Sigma) supplemented with 10% (v/v) foetal bovine serum, penicillin-streptomycin (10,000 U/mL/10000 μg/mL), G-418 (750 μg/mL), L-glutamine (2 mM) and sodium bicarbonate solution (7.5% v/v). At ˜90% confluence cells were harvested for experiments by detachment with a 2:1 (v/v) mixture of Detachin (BMS Biotechnology) and 0.25% (w/v) trypsin-EDTA. Cells were diluted to a density of 3.5-4.5×10^6 cells/mL with media consisting of CHO-S-SFM II (Sigma), 25 mM HEPES (Sigma) and Soy bean trypsin inhibitor (Sigma).
FRT-TMEM16A cells were whole-cell patch clamped using an automated planar patch clamp system (Qpatch, Sophion). Briefly, once high resistance (GOhm) seals were established between the cells and the planar recording array the patch was ruptured using suction pulses to establish the whole-cell recording configuration of the patch clamp technique. The assay employed the following solutions (all reagents Sigma): Intracellular solution (mM): N-methyl-D-glucamine 130, CaCl2 18.2, MgCl2 1, HEPES 10, EGTA 10, BAPTA 20, Mg-ATP 2, pH 7.25, 325 mOsm with sucrose.
Extracellular solution (mM): N-methyl-D-glucamine 130, CaCl2 2, MgCl2 1, HEPES 10, pH 7.3, 320 mOsm with sucrose.
The intracellular solution buffers intracellular calcium at levels required to give ˜20% activation of the maximal TMEM16A mediated current (EC20 for calcium ions). Cells were voltage clamped at a holding potential of −70 mV and a combined voltage step (to +70 mV)/ramp (−90 my to +90 mV) was applied at 0.05 Hz. After a period of current stabilisation test compounds, solubilised in 100% (v/v) DMSO and subsequently diluted into extracellular solution, were applied to generate a cumulative concentration response curve. Each concentration of test compound was incubated for 5 minutes before addition of the next concentration. After the final concentration was tested a supramaximal concentration of either a known active positive modulator or the TMEM16A inhibitor, CaCCinhA01 (Del La Fuente et al, 2008) was added to define the upper and lower limits of the assay.
Compound activity was quantified by measuring the increase in current upon compound addition and expressing this as a percentage increase of baseline TMEM16A current level. Percentage increases in current were determined for each concentration and the data plotted as a function of concentration using either the Qpatch software or Graphpad Prism v6.05 providing the concentration which gave 50% of its maximal effect (EC50) and maximum efficacy (percentage of baseline increase).
In FIG. 1, IBL equals baseline current, I[#1] equals the peak current during test compound concentration 1 incubation period and so on.
Peak TMEM16A current at +70 mV was plotted as a function of time over the assay period. Baseline current (IBL) was measured after a period of stabilisation. The increase in current for each compound addition was determined by taking the peak current during the incubation period and subtracting the current from the previous recording period and then expressing this as a percentage of the baseline current. […]

human TMEM16A (TMEM16Aabc variant), sequence (Q5XXA6 with tags, fused parts or gaps DEL476-501): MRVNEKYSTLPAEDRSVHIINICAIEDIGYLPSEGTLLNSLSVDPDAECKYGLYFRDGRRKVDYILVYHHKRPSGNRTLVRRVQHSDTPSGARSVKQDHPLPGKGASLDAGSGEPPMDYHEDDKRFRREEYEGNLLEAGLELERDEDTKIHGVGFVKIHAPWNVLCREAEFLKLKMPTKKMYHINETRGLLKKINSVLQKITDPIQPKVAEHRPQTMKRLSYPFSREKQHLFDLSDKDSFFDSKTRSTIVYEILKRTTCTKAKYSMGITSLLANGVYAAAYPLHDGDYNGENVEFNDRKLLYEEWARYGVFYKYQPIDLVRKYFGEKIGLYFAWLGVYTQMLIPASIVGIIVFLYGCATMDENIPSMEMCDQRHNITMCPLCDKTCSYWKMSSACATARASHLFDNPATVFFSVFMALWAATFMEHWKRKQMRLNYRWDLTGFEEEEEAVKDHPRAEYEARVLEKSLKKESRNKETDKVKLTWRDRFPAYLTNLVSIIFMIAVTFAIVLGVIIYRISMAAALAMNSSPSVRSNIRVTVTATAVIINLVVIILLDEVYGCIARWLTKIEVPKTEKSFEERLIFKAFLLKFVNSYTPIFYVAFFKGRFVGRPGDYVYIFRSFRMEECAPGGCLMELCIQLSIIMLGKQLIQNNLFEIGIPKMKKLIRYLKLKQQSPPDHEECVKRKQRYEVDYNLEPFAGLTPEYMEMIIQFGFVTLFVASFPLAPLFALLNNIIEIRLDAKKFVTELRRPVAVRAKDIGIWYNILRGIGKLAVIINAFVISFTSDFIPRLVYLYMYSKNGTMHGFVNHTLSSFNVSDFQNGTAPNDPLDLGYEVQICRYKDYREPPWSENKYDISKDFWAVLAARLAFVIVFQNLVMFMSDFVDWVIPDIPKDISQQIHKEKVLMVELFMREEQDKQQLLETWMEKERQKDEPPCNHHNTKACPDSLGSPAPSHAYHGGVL

SMILES	% Potentiation @ 3.33 μM Avg [%]	EC50 [nM]
CC(C)(C)NC(=O)c1ccc(O)c(NC(=O)Cc2cc(Cl)ccc2O)c1 [Example 14, N-tert-Butyl-3-[[2-(5-chloro-2-hydroxy-phenyl)acetyl]amino]-4-hydroxy-benzamide]	58	
C#CC(C)(C)NC(=O)c1cc(NC(=O)Cc2ccccc2F)ccn1 [Example 60.2, N-(1,1-Dimethylprop-2-ynyl)-4-[[2-(2-fluorophenyl)acetyl]amino]pyridine-2-carboxamide]	169	200
CC(C)c1cc(Cl)cc(CC(=O)Nc2ccnc(C(=O)NC(C)(C)C)c2)c1O [Example 61, N-tert-Butyl-4-[[2-(5-chloro-2-hydroxy-3-isopropyl-phenyl)acetyl]amino]pyridine-2-carboxamide]	85	
C#CC(C)(C)NC(=O)c1cccc(NC(=O)Cc2cc(F)ccc2O)c1 [Example 35.21, N-(1,1-Dimethylprop-2-ynyl)-3-[[2-(5-fluoro-2-hydroxy-phenyl)acetyl]amino]benzamide]	200	410
CC(C)(C)NC(=O)c1cc(NC(=O)Cc2ccccc2C(F)(F)F)ccn1 [Example 23.12, N-tert-Butyl-4-[[2-[2-(trifluoromethyl)phenyl]acetyl]amino]pyridine-2-carboxamide]	197	330
N#CC1(NC(=O)c2cc(NC(=O)Cc3ccccc3Cl)ccn2)CCOCC1 [Example 23.15, 4-[[2-(2-Chlorophenyl)acetyl]amino]-N-(4-cyanotetrahydropyran-4-yl)pyridine-2-carboxamide]	147	1190
N#CC1(NC(=O)c2cc(NC(=O)Cc3ccc4ncccc4c3)ccn2)CCC1 [Example 23.11, N-(1-Cyanocyclobutyl)-4-[[2-(6-quinolyl)acetyl]amino]pyridine-2-carboxamide]	101	
CC(C)(C)NC(=O)c1cccc(NC(=O)Cc2cc(F)ccc2O)c1 [Example 2.1, N-tert-Butyl-3-[[2-(5-fluoro-2-hydroxy-phenyl)acetyl]amino]benzamide]	216	490
Cc1[nH]c2c(F)cccc2c1CC(=O)Nc1cccc(C(=O)NC(C)(C)C)c1 [Example 4.4, N-tert-Butyl-3-[[2-(7-fluoro-2-methyl-1H-indol-3-yl)acetyl]amino]benzamide]	61	4190
O=C(Cc1cc(Cl)ccc1O)Nc1ccnc(C(=O)NCc2ccncc2)c1 [Example 32.4, 4-[[2-(5-Chloro-2-hydroxy-phenyl)acetyl]amino]-N-(4-pyridylmethyl)pyridine-2-carboxamide]	187	710
CC(C)NC(=O)c1cc(NC(=O)Cc2cc(F)ccc2O)ccn1 [Example 81.2, 4-[[2-(5-Fluoro-2-hydroxy-phenyl)acetyl]amino]-N-isopropyl-pyridine-2-carboxamide]	103	420
CC(C)(O)C(C)(C)NC(=O)c1cc(NC(=O)Cc2cc(Cl)ccc2O)ccn1 [Example 7.14, 4-[[2-(5-Chloro-2-hydroxy-phenyl)acetyl]amino]-N-(2-hydroxy-1,1,2-trimethyl-propyl)pyridine-2-carboxamide]	225	150
CC(C)(C)NC(=O)c1cc(NC(=O)Cc2cccc(F)c2Cl)ccn1 [Example 40, N-tert-Butyl-4-[[2-(2-chloro-3-fluoro-phenyl)acetyl]amino] pyridine-2-carboxamide]	153	700
COc1ccc(CNC(=O)c2cc(NC(=O)Cc3cc(Cl)ccc3O)ccn2)nc1 [Example 35.12, 4-[[2-(5-Chloro-2-hydroxy-phenyl)acetyl]amino]-N-[(5-methoxy-2-pyridyl)methyl]pyridine-2-carboxamide]	158	420
CCCC(C)(C)NC(=O)c1cccc(NC(=O)Cc2cc(Cl)ccc2O)c1 [Example 7.1, 3-[[2-(5-Chloro-2-hydroxy-phenyl)acetyl]amino]-N-(1,1-dimethylbutyl)benzamide]	241	340
CC(C)(C)NC(=O)c1cc(NC(=O)Cc2ccc3nccnc3c2)ccn1 [Example 5.23, N-tert-Butyl-4-[(2-quinoxalin-6-ylacetyl)amino]pyridine-2-carboxamide]	144	1200
CC(C)(C#N)NC(=O)c1cc(NC(=O)c2cnn(Cc3ccccc3)c2)ccn1 [Example 83.21, 4-[(1-Benzylpyrazole-4-carbonyl)amino]-N-(1-cyano-1-methyl-ethyl)pyridine-2-carboxamide]	70	
CC(C#N)(CO)NC(=O)c1cc(NC(=O)Cc2cc(F)ccc2O)ccn1 (stereo not shown) [Example 81.1, N-(1-Cyano-2-hydroxy-1-methyl-ethyl)-4-[[2-(5-fluoro-2-hydroxy-phenyl)acetyl]amino] pyridine-2-carboxamide]	108	
COc1cc(CCC(=O)Nc2ccnc(C(=O)NC(C)(C)C#N)c2)ccn1 [Example 83.13, N-(1-Cyano-1-methyl-ethyl)-4-[3-(2-methoxy-4-pyridyl)propanoylamino]pyridine-2-carboxamide]	-1	
C[C@H](NC(=O)Nc1ccnc(C(=O)NC(C)(C)C)c1)c1ccccc1 [Example 64.4, N-tert-Butyl-4-[[(1S)-1-phenylethyl]carbamoylamino]pyridine-2-carboxamide]	2	
CC(C)(C)NC(=O)c1cccc(NC(=O)Cc2c[nH]c3ccc(F)cc23)c1 [Example 4.2, N-tert-Butyl-3-[[2-(5-fluoro-1H-indol-3-yl)acetyl]amino]benzamide]	116	660
C#CC(C)(C)NC(=O)c1cc(NC(=O)Cc2c[nH]nc2C(F)(F)F)ccn1 [Example 5.36, N-(1,1-Dimethylprop-2-ynyl)-4-[[2-[3-(trifluoromethyl)-1H-pyrazol-4-yl]acetyl]amino] pyridine-2-carboxamide]	44	60
C#CC(C)(C)NC(=O)c1cc(NC(=O)CC2OCCc3ccccc32)ccn1 (stereo not shown) [Example 5.33, N-(1,1-Dimethylprop-2-ynyl)-4-[(2-isochroman-1-ylacetyl)amino]pyridine-2-carboxamide]	49	
CC(C)(C)NC(=O)c1cc(NC(=O)Cc2c[nH]c3ccccc23)ccn1 [Example 5.6, N-tert-Butyl-4-[[2-(1H-indol-3-yl)acetyl]amino]pyridine-2-carboxamide]	101	150
CC(C)(C)NC(=O)c1cc(NC(=O)Cc2ccc3ncoc3c2)ccn1 [Example 5.15, 4-[[2-(1,3-Benzoxazol-6-yl)acetyl]amino]-N-tert-butyl-pyridine-2-carboxamide]	87	
CC(C)(C)NC(=O)c1cc(NC(=O)NCc2cccc(Cl)c2)ccn1 [Example 64.7, N-tert-Butyl-4-[(3-chlorophenyl)methylcarbamoylamino]pyridine-2-carboxamide]	83	
CC1(CC(=O)Nc2ccnc(C(=O)NC(C)(C)C#N)c2)CCCCC1 [Example 83.7, N-(1-Cyano-1-methyl-ethyl)-4-[[2-(1-methylcyclohexyl)acetyl]amino]pyridine-2-carboxamide]	147	
